Molecules are shown by their SMILES.

For this experiment, the target named is T1, α4β7 (Homo sapiens, UniProt P13612+P26010).
T1 construct: endogenous in cells; host or cells: RPMI 8866 cells
T1 sequence (P13612 34-1032): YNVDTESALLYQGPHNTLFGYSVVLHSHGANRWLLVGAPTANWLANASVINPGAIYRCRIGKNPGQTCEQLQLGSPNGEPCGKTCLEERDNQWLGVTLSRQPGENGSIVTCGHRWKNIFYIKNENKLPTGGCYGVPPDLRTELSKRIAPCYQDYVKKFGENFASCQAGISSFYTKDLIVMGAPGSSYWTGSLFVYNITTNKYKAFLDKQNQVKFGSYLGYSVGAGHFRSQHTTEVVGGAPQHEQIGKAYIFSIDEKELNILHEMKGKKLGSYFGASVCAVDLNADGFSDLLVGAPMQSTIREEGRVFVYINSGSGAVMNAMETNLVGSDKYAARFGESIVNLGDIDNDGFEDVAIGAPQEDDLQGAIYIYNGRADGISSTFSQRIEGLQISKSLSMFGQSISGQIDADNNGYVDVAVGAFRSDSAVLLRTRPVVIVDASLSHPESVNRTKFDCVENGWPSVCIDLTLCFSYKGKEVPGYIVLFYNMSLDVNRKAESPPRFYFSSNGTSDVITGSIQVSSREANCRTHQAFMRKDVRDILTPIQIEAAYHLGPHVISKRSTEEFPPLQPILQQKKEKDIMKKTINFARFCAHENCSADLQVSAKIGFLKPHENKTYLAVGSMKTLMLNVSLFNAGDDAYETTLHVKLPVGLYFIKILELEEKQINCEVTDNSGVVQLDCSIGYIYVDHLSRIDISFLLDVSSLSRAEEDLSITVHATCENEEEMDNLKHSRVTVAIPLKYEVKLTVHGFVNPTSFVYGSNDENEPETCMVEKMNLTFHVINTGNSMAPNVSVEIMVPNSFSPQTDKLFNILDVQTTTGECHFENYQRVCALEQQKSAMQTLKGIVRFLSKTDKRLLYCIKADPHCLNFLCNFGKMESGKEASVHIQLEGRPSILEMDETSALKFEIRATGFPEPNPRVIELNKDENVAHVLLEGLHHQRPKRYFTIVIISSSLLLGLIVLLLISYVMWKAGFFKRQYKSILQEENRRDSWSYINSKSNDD
T1 sequence (P26010 20-798): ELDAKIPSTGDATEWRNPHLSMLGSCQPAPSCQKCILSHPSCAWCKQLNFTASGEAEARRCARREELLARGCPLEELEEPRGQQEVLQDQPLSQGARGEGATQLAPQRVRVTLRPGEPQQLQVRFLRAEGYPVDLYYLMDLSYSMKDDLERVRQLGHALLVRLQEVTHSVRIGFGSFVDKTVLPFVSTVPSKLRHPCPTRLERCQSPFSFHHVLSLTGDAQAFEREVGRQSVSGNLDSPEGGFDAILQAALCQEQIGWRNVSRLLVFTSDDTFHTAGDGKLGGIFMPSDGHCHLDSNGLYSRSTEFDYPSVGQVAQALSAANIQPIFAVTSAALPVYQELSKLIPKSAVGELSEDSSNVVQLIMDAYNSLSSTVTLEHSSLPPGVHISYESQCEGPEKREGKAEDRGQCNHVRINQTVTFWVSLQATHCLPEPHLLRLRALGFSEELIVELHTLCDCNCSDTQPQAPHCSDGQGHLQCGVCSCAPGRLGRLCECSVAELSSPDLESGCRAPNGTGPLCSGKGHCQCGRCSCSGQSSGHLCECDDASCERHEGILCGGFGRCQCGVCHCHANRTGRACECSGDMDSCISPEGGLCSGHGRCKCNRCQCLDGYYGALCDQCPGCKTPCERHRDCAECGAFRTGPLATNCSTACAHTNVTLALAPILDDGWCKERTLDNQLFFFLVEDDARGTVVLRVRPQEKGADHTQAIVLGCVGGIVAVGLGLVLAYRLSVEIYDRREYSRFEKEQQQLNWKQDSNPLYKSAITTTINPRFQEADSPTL
In words: Cell adhesion assay, RPMI8866 cells on MAdCAM coated plates (Example 7). The format is cell-based. The conditions noted are these: RPMI8866 cells adhering to recombinant human MAdCAM; Table 4 comparative compounds; read-out: CA Assay (Example 7). The method, then: Three in vitro assays were used to examine the α4β7 mechanistic process used by cells: 1) ligand:receptor affinity, 2) the avidity of those interactions on a cell's surface, and 3) how those interactions fare under an imposing force. In Example 5, a Fluorescence Polarization (FP) assay is used to measure compound activity through binding competition with the fluorescein-labeled peptide. In Example 6, the potency of compounds against α4β7 is measured in the cell-based ligand binding assay (LBA), using RPMI 8866 cells incubated with the compound samples in competition with soluble MAdCAM-1 ligand. In Example 7, activity of compounds is evaluated in a cell adhesion assay that mechanistically tests what occurs in vivo when trafficking cells utilize α4β7 to adhere to MAdCAM-1 expressing HEVs of the gut during the extravasation process. In the cell adhesion assay of Example 7, a MAdCAMI1-(Fc) is coated on plastic, and α4β7 expressing cells (RPMI-8866) are allowed to adhere to the coated surface in the presence of the test compounds. Next, the force of washing with buffer is applied to cells thereby testing the strength of that adhesion. Unattached cells are removed and the remaining adherent cells are quantified.
Example 7 describes a cell adhesion assay.
To each well of a 96 well plate, 100 ug of recombinant human MAdCAM in 100 ul PBS is added and incubated overnight at 4° C. After incubation MAdCAM is removed by aspiration and 200 ul of PBS+1% BSA is added to block the plate for 2 hours at 37° C. and 5% CO2. During this incubation dilution curves of compound are made in 100% DMSO in 96 well V bottom plates. 1.75 ul of diluted compounds are then transferred to a new 96 well U bottom plate containing 20 ul of assay media (phosphate free DMEM+25 mM HEPES+1% BSA). To this an additional 155 ul of assay media is added with mixing by pipetting up and down. This mixture is allowed to incubate for 15 minutes at 37° C. and 5% CO2. After incubation 175 ul of assay media containing 2e6/mL RPMI8866 cells is added to compound containing wells without mixing and plate is allowed to incubate for another 15 minutes at 37° C. and 5% CO2. During this incubation MAdCAM coated plates are removed from incubator and washed twice with 200 ul PBS+0.1% BSA. […] This plate is then incubated at 37° C. and 5% CO2 for 1 hour. After incubation plates are washed twice with 200 ul and once with 50 ul of phenol free RPMI+1% BSA. A final 50 ul of phenol free RPMI+1% BSA is added to wells after last wash. Next 50 ul of Promega cell titer glow is added to the wells. Plate is incubated on shaker for 2 minutes at 200 RPM followed by another 8 minutes off shaker before having the luminescence read on a Biotek Citation 5 plate reader. Raw data is converted to % inhibition compared to bottom of curve and analyzed using a 4-parameter non linear curve in Prism to determine IC50 and IC90.
As to `Cc1cccc(C)c1-c1cccc([C@H](CC(=O)O)NC(=O)[C@H](CC(C)C)n2cc(CN3CC(F)C3)ccc2=O)c1` [drawing 589], the IC50 was greater than 50 nM. Then `Cc1cccc(C)c1-c1cccc([C@H](CC(=O)O)NC(=O)[C@H](CC(C)C)n2cc(CN3CC(F)C3)ccc2=O)c1` [drawing 594], with greater than 50 nM; and `Cc1cccc(C)c1-c1cccc([C@H](CC(=O)O)NC(=O)[C@H](CC(C)C)n2cc(CN3CC(F)C3)ccc2=O)c1` [drawing 599], with less than 5 nM. The value for `Cc1cccc(C)c1-c1cccc([C@H](CC(=O)O)NC(=O)[C@H](CC(C)C)n2cc(CN3CC(F)C3)ccc2=O)c1` [drawing 604] was greater than 50 nM.

(Values after patent US11104661B1, “Inhibiting human integrin (α-4) (β-7)” (Morphic Therapeutic, Inc., priority 2019, dated 2021).)
